From patent US11976075B2, “Inhibitors of the MYST family of lysine acetyl transferases” (Isosterix, Inc., priority 2022, dated 2024) come the findings set out here.

By pIC50 is commonly meant the negative decadic logarithm of the IC50, by convention in mol/L.

pIC50: −log10 of the molar value. A value given as a limit tells only on which side of the number the result lay.

T1 sequence (Q92794 488-778): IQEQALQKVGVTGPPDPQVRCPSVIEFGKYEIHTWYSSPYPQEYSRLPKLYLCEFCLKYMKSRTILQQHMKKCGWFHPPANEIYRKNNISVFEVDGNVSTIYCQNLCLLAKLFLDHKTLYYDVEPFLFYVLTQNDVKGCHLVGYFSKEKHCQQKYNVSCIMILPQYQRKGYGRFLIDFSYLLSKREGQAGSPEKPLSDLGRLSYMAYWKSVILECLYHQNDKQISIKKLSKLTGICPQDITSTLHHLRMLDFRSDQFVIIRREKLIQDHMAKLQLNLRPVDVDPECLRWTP

One test addresses T1, Recombinant KAT6A/MOZ (488-778) protein (Homo sapiens, UniProt Q92794).
T1 construct: Recombinant KAT6A/MOZ (488-778) protein (Active motif, Catalog #81223); purchased Active Motif 81223
Description: Kat6a AlphaLISA Inhibition Screening Assay. The class given is biochemical. The note with it: 10′ pre-incubation; Table 2; read-out: Kat6A biochemical assay: IC50. The method, then:
The Kat6a inhibitory activity of test compounds was determined using an Alpha Screen-based detection method. The assay reactions were conducted in a volume of 10 μL in Alpha Plate, White 384 well plate (cat #6008280, Perkin Elmer). The enzymatic reactions were performed in assay buffer pH 8.0 (50 mM Tris-HCl, 0.1 mM EDTA, 0.01% Tween-20, 1 mM Dithiothreitol, 0.1% BSA (fatty acid free) and 330 nM TSA (Trichostatin A)). 10 μL reaction volume consisting of 25 nM of Recombinant KAT6A/MOZ (488-778) protein (Active motif, Catalog #81223), 400 nM Acetyl coenzyme A (Catalog #A2056, Sigma), 200 nM of Histone H3 peptide [(amino acids 1-21), biotin-labeled (BPS Biosciences, Catalog #52011,)] and a 10-point dose response curve for test/tool compounds were prepared. Enzyme and compounds solution were pre-incubated in assay plate for 60 or 10 min at room temperature then substrate and Acetyl coenzyme A solution were added to the plate. After addition, the plate was sealed with adhesive seals and incubated for 120 minutes at room temperature.
After 120 minutes of incubation, 5 μL (10 μg/mL) of AlphaLISA anti-acetyl-Lysine acceptor beads (Perkin Elmer, Catalog #AL143C) were added to the plate and it was incubated for 60 minutes at room temperature. Then 10 μL (10 μg/mL) of Alpha Streptavidin donor beads (Perkin Elmer, Catalog #6760002S) were added to the plate which was further incubated for 60 minutes at room temperature. After incubation, the alpha signal was recorded by using Perkin Elmer Envision multi-mode reader.
NA means the compound was not active at the concentration tested. […] NT means not tested.
A general note: Alpha assays give light when donor and acceptor beads are brought close together.
`C#CC(=O)NCc1ccnc(-c2cc(C)cc(C(=O)NNS(=O)(=O)c3ccccc3F)c2)c1` [compound 13]: the negative-log IC50 (pIC50) was at least 5.00.

Still in this test, the particulars now being: 60′ pre-incubation; Table 2; read-out: Kat6A biochemical assay: IC50.
With `C=CC(=O)N1CCC(c2ccnc(-c3cc(C)cc(C(=O)NNS(=O)(=O)c4ccccc4F)c3)c2)CC1` [Synthetic Example 41, N-(3-(4-(1-acryloylpiperidin-4-yl)pyridin-2-yl)-5-methylbenzoyl)-2-fluorobenzenesulfonohydrazide], the pIC50 was at least 5.00.

Regarding `C=CS(=O)(=O)N1Cc2cnn(Cc3cc(OC)c4c(NS(=O)(=O)c5ccccc5OC)noc4c3)c2C1` [Synthetic Example 27A, 2-methoxy-N-(4-methoxy-6-((5-(vinylsulfonyl)-5,6-dihydropyrrolo[3,4-c]pyrazol-1(4H)-yl)methyl)benzo[d]isoxazol-3-yl)benzenesulfonamide], the negative logarithm of the IC50 (pIC50) is at least 5.00.

In the case of `C#CC(=O)NCc1cnn(Cc2cc(OC)c3c(NS(=O)(=O)c4ccccc4C(=O)NC)noc3c2)c1` [compound 68, 2-(N-(4-methoxy-6-((4-(propiolamidomethyl)-1H-pyrazol-1-yl)methyl)benzo[d]isoxazol-3-yl)sulfamoyl)-N-methylbenzamide], the negative-log IC50 (pIC50) was at least 5.00.

With `C#CC(=O)NCc1cnn(Cc2cc(OC)c3c(NS(=O)(=O)c4cccc(C(=O)NC)c4)noc3c2)c1` [Synthetic Example 52, 3-(N-(4-methoxy-6-((4-(propiolamidomethyl)-1H-pyrazol-1-yl)methyl)benzo[d]isoxazol-3-yl)sulfonyl)-N-methylbenzamide], the negative-log IC50 (pIC50) was at least 5.00.

Consider `C#CC(=O)NCc1cnn(Cc2cc(OC)c3c(NS(=O)(=O)CC4CCCCC4)noc3c2)c1` [compound 5], for which the pIC50 was at least 5.00.

For `C#CC(=O)NCc1ccnc(-c2cc(C)cc(C(=O)NNS(=O)(=O)c3cccc(C(=O)NC)c3)c2)c1` [Synthetic Example 55, N-methyl-3-[[[3-methyl-5-[4-[(prop-2-ynoylamino)methyl]-2-pyridyl]benzoyl]amino]sulfamoyl] benzamide], the negative logarithm of the IC50 (pIC50) is at least 5.00.

In the case of `COc1ccccc1S(=O)(=O)Nc1noc2cc(Cn3cc(CNC(=O)C#CCO)cn3)cc(OC)c12` [Synthetic Example 53, 4-hydroxy-N-((1-((4-methoxy-3-((2-methoxyphenyl)sulfonamido)benzo[d]isoxazol-6-yl)methyl)-1H-pyrazol-4-yl)methyl) but-2-ynamide], the pIC50 was at least 5.00.

Take `C#CC(=O)NC1CCN(Cc2cc(OC)c3c(NS(=O)(=O)c4ccccc4OC)noc3c2)C1` (centres unmarked) [Synthetic Example 48, N-(1-((4-methoxy-3-((2-methoxyphenyl)sulfonamido)benzo[d]isoxazol-6-yl)methyl)pyrrolidin-3-yl)propiolamide]: the negative-log IC50 (pIC50) was at least 5.00.

Regarding `C#CC(=O)NCc1cnn(Cc2cc(OC)n3c(NS(=O)(=O)c4ccccc4OC)nnc3c2)c1` [Synthetic Example 66, N-((1-((5-methoxy-3-((2-methoxyphenyl)sulfonamido)-[1,2,4]triazolo[4,3-a]pyridin-7-yl)methyl)-1H-pyrazol-4-yl)methyl)propiolamide], the pIC50 is at least 5.00.

The test is the same for the next values; noted with them: 60′ pre-incubation; Table 3; read-out: Kat6A Biochemical assay: IC50.
`C#CC(=O)N1CCN(c2cccc(-c3cc(OC)c4c(NS(=O)(=O)N(C)C5CCCCC5)noc4c3)c2)CC1` [compound 112, 3-[[cyclohexyl(methyl)sulfamoyl]amino]-4-methoxy-6-[3-(4-prop-2-ynoylpiperazin-1-yl)phenyl]-1,2-benzoxazole]: the pIC50 is at least 5.00.

On to `C#CC(=O)NCc1cnn(Cc2cc(OC)c3c(NS(=O)(=O)c4cc(C(=O)O)ccc4OC)noc3c2)c1` [compound 86, 4-methoxy-3-(N-(4-methoxy-6-((4-(propiolamidomethyl)-1H-pyrazol-1-yl)methyl)benzo[d]isoxazol-3-yl)sulfamoyl)benzoic acid], for which the negative-log IC50 (pIC50) is below 5.00.

Take `C#CC(=O)N1CCN(c2cccc(-c3cc(OC)c4c(NS(=O)(=O)c5c(OC)cccc5OC)noc4c3)n2)CC1` [compound 96, 2,6-dimethoxy-N-(4-methoxy-6-(6-(4-propioloylpiperazin-1-yl)pyridin-2-yl)benzo[d]isoxazol-3-yl)benzenesulfonamide]: the pIC50 is at least 5.00.

In the case of `C#CC(=O)NCc1cnn(-c2cc(C)nc(C(=O)NNS(=O)(=O)c3ccccc3F)c2)c1` [compound 91, N-((1-(2-(2-((2-fluorophenyl)sulfonyl) hydrazine-1-carbonyl)-6-methylpyridin-4-yl)-1H-pyrazol-4-yl)methyl) propiolamide], the negative logarithm of the IC50 (pIC50) is at least 5.00.

`C#CC(=O)N1CCN(c2cccc(-c3cc(OC)c4c(NS(=O)(=O)c5c(OC)cccc5OC)noc4n3)c2)CC1` [compound 113, 2,6-dimethoxy-N-(4-methoxy-6-(3-(4-propioloylpiperazin-1-yl)phenyl)isoxazolo[5,4-b]pyridin-3-yl)benzenesulfonamide]: the pIC50 is at least 5.00.

In the case of `C#CC(=O)N1CCN(c2ccnc(-c3cc(OC)c4c(NS(=O)(=O)c5c(OC)cccc5OC)noc4c3)c2)CC1` [compound 119, 2,6-dimethoxy-N-(4-methoxy-6-(4-(4-propioloylpiperazin-1-yl)pyridin-2-yl)benzo[d]isoxazol-3-yl)benzenesulfonamide], the negative-log IC50 (pIC50) is at least 5.00.

As to `C#CC(=O)N1CCC(c2cccc(-c3cc(OC)c4c(NS(=O)(=O)c5c(OC)cccc5OC)noc4c3)c2)CC1` [compound 101, 2,6-dimethoxy-N-(4-methoxy-6-(3-(1-propioloylpiperidin-4-yl)phenyl)benzo[d]isoxazol-3-yl) benzenesulfonamide], the negative-log IC50 (pIC50) is at least 5.00.

Take `C#CC(=O)N1CC[C@@H](OCc2cc(OC)c3c(NS(=O)(=O)c4cc(CC)ccc4OC)noc3c2)C1` [compound 110, (R)-5-ethyl-2-methoxy-N-(4-methoxy-6-(((1-propioloylpyrrolidin-3-yl)oxy)methyl)benzo[d]isoxazol-3-yl) benzenesulfonamide]: the pIC50 is at least 5.00.

Take `C#CC(=O)NCc1cnn(Cc2cc(OC)c3c(NS(=O)(=O)c4cc(C(=O)NC)ccc4OC)noc3c2)c1` [compound 85, 4-methoxy-3-(N-(4-methoxy-6-((4-(propiolamidomethyl)-1H-pyrazol-1-yl)methyl)benzo[d]isoxazol-3-yl)sulfamoyl)-N-methylbenzamide]: the negative logarithm of the IC50 (pIC50) was at least 5.00.

Turning to `COc1ccccc1S(=O)(=O)Nc1noc2cc(Cn3cc(CNS(=O)(=O)c4ccccc4)cn3)cc(OC)c12` [compound 79, 2-methoxy-N-(4-methoxy-6-((4-(phenylsulfonamidomethyl)-1H-pyrazol-1-yl)methyl)benzo[d]isoxazol-3-yl)benzenesulfonamide], the pIC50 is at least 5.00.

On to `C=CS(=O)(=O)NCCOCc1cc(OC)c2c(NS(=O)(=O)c3cc(CC)ccc3OC)noc2c1` [compound 107], for which the pIC50 is at least 5.00.

Take `C#CC(=O)N1CCN(c2cccc(-c3cc(OC)c4c(NS(=O)(=O)c5ccccc5OC)noc4c3)c2)CC1` [compound 74, 2-methoxy-N-(4-methoxy-6-(3-(4-propioloylpiperazin-1-yl)phenyl)benzo[d]isoxazol-3-yl)benzenesulfonamide]: the pIC50 was at least 5.00.

As for `C#CC(=O)NCCNC(=O)c1cnn(Cc2cc(OC)c3c(NS(=O)(=O)c4cc(CC)ccc4OC)noc3c2)c1` [compound 94, 1-((3-((5-ethyl-2-methoxyphenyl)sulfonamido)-4-methoxybenzo[d]isoxazol-6-yl)methyl)-N-(2-propiolamidoethyl)-1H-pyrazole-4-carboxamide], the pIC50 was at least 5.00.
